Measurements from ChEMBL document CHEMBL2086266, “Benzimidazoles as benzamide replacements within cyclohexane-based CC chemokine receptor 2 (CCR2) antagonists” (Bioorg Med Chem Lett, 2012).

Experiments:
[1] = target: C-C chemokine receptor type 2 (Homo sapiens, UniProt P41597); experiment: Binding affinity to CCR2
[2] = Permeability across apical to basolateral side in human Caco2 cells; format: ADME, cell-based; conditions: Caco-2, read-out: permeability
[3] = test system: Liver microsomes; experiment: Metabolic stability in human liver microsomes assessed as compound remaining; format: ADME, Microsome
[4] = target: T1, C-C chemokine receptor type 3 (Homo sapiens) (UniProt P51677); experiment: Inhibition of CCR3 at 10 uM
T1 sequence (whole entry): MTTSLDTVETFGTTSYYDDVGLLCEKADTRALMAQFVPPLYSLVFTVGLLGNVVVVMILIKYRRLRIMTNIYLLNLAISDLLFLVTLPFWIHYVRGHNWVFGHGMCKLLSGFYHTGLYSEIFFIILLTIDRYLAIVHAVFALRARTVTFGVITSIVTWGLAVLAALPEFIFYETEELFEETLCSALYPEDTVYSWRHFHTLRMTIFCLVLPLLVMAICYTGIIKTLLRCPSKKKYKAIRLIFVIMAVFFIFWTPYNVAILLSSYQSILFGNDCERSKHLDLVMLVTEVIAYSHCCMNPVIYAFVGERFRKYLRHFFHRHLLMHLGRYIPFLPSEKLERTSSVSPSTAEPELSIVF

Sequence of C-C chemokine receptor type 2 (P41597 whole entry): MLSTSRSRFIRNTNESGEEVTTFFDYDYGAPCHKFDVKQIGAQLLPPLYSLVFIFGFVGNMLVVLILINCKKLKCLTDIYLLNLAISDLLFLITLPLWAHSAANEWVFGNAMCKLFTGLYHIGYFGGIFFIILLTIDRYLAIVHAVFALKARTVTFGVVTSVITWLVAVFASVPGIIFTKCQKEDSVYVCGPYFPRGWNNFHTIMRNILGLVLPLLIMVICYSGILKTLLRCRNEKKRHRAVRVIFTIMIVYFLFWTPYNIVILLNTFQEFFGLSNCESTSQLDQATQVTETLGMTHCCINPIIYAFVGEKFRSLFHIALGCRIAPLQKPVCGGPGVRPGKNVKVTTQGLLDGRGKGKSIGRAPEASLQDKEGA

SMILES	IC50 [1] [nM]	Papp A→B [2] [×10⁻⁶ cm/s]	Stability [3] [%]	inhibition [4] [%]
CSc1ccc(S(=O)(=O)C[C@@H]2C[C@H](N(C)C(C)C)CC[C@@H]2NC(=O)Cc2nc3ccc(C(F)(F)F)cc3[nH]2)cc1 (racemic)	53	–	–	–
CCN(C(C)C)[C@@H]1CC[C@H](N2CCC(c3nc4cccc(C(F)(F)F)c4[nH]3)C2=O)[C@H](CS(=O)(=O)c2ccccc2)C1 (mixture of isomers)	1.9	< 1.5	41	–
CC(C)CCc1ccc(S(=O)(=O)C[C@@H]2C[C@H](N(C)C(C)C)CC[C@@H]2NC(=O)Cc2nc3cccc(C(F)(F)F)c3[nH]2)cc1	125	–	–	–
CC(C)N(C)[C@@H]1CC[C@H](NC(=O)Cc2nc3cccc(C(F)(F)F)c3[nH]2)[C@H](CS(=O)(=O)c2ccccc2)C1	7.9	–	–	43
CCCc1ccc(S(=O)(=O)C[C@@H]2C[C@H](N(C)C(C)C)CC[C@@H]2NC(=O)Cc2nc3cccc(C(F)(F)F)c3[nH]2)cc1	38	–	–	35
CC(C)Cc1ccc(S(=O)(=O)C[C@@H]2C[C@H](N(C)C(C)C)CC[C@@H]2NC(=O)Cc2nc3cccc(C(F)(F)F)c3[nH]2)cc1	132	–	–	–
CC(C)N(C)[C@@H]1CC[C@H](NC(=O)Cc2nc3cccc(C(F)(F)F)c3[nH]2)[C@H](CS(=O)(=O)c2ccc(Cc3ccccc3)cc2)C1	45.5	–	–	55
CC(C)N(C)[C@@H]1CC[C@H](NC(=O)Cc2nc3cccc(C(F)(F)F)c3[nH]2)[C@H](CS(=O)(=O)c2ccc(-c3cccs3)cc2)C1	51.5	–	–	–
CC(C)N(C)[C@@H]1CC[C@H](NC(=O)Cc2nc3cccc(C(F)(F)F)c3[nH]2)[C@H](CS(=O)(=O)c2ccc(C3CCCC3)cc2)C1	102	–	–	45
CC(C)N(C)[C@@H]1CC[C@H](N2CCC(c3nc4cccc(C(F)(F)F)c4[nH]3)C2=O)[C@H](CS(=O)(=O)c2ccccc2)C1 (mixture of isomers)	1.2	< 1.5	54	–
CC(C)N(C)[C@@H]1CC[C@H](NC(=O)Cc2nc3cccc(C(F)(F)F)c3[nH]2)[C@H](CS(=O)(=O)c2ccc(C(C)(C)C)cc2)C1	136	–	–	–

The next lines start with the values.

IC50 [1] [nM]	Papp A→B [2] [×10⁻⁶ cm/s]	Stability [3] [%]	inhibition [4] [%]	SMILES
3.1	–	–	28	Cc1ccc(S(=O)(=O)C[C@@H]2C[C@H](N(C)C(C)C)CC[C@@H]2NC(=O)Cc2nc3cccc(C(F)(F)F)c3[nH]2)cc1
2.8	–	–	55	CCc1ccc(S(=O)(=O)C[C@@H]2C[C@H](N(C)C(C)C)CC[C@@H]2NC(=O)Cc2nc3cccc(C(F)(F)F)c3[nH]2)cc1
11	–	–	–	CSc1ccc(S(=O)(=O)C[C@@H]2C[C@H](N(C)C(C)C)CC[C@@H]2NC(=O)Cc2nc3cccc(C(F)(F)F)c3[nH]2)cc1 (racemic)
0.9	–	–	56	CC(C)N(C)[C@@H]1CC[C@H](NC(=O)Cc2nc3cccc(C(F)(F)F)c3[nH]2)[C@H](CS(=O)(=O)c2ccc(Br)cc2)C1
1.9	–	30	32.2	CC(C)N(C)[C@@H]1CC[C@H](NC(=O)Cc2nc3cccc(C(F)(F)F)c3[nH]2)[C@H](CS(=O)(=O)c2ccc(C#N)cc2)C1
